Source: US8058427B2, “Coumarin compounds and their use for treating cancer” (National Health Research Institutes, priority 2008, dated 2011)

tested on: Human cervical carcinoma KB cells; assay: Growth inhibition assay, KB cells (MTS); assay type: cell-based; conditions: 72 h, read-out: IC50 (concentration causing 50% cell growth inhibition)
Protocol: Anticancer activities of the compounds of this invention were evaluated using a growth inhibition assay described in Kuo et al., Cancer Res. 2004, 64(13), 4621-4628.
Human cervical carcinoma KB cells were maintained in plastic dishes in DMEM medium supplemented with 10% fetal bovine serum. For in vitro treatment, tumor cells were seeded in […] of culture medium/well in 96-well plates to a final cell density of 6×10^3 cell/mL and incubated in a CO2 incubator at 37° C. for 24 h. The cells were treated with at least five different concentrations of a test compound, and incubated in a CO2 incubator at 37° C. for 72 h. The number of viable cells was estimated using MTS assay and absorbance was measured at 490 nm. For each test compound, dose-response curves were measured with at least five different drug concentrations, and the concentration causing 50% cell growth inhibition (IC50) compared with the control was calculated.

SMILES | IC50 [nM]
O=C(c1ccccc1)c1oc2ccc3ccc(=O)oc3c2c1-c1ccccc1 [Compound 2] | 101 to 999
Cc1cc2ccc3oc(C(=O)c4ccccc4)c(-c4ccccc4)c3c2oc1=O [Compound 3] | 101 to 999
Cc1cc(=O)oc2c1cc(C)c1oc(C(=O)c3ccccc3)c(-c3ccccc3)c12 [Compound 8] | 1000 to 10000
O=Cc1cc(=O)oc2c1ccc1oc(C(=O)c3ccccc3)c(-c3ccccc3)c12 [Compound 10] | 101 to 999
O=C(c1ccccc1)c1oc2ccc3c(C(F)(F)F)cc(=O)oc3c2c1-c1ccccc1 [Compound 11] | 101 to 999
Cc1c(Cc2ccccc2)c(=O)oc2c1ccc1oc(C(=O)c3ccccc3)c(-c3ccccc3)c12 [Compound 19] | 1000 to 10000
O=C(c1ccccc1)c1oc2ccc3c4c(c(=O)oc3c2c1-c1ccccc1)CCCC4 [Compound 21] | 1000 to 10000
O=C(c1ccccc1)c1oc2ccc3c4ccccc4c(=O)oc3c2c1-c1ccccc1 [Compound 22] | 1000 to 10000
Cc1cc(=O)oc2c1ccc1sc(C(=O)c3ccccc3)c(-c3ccccc3)c12 [Compound 26] | 101 to 999
Cc1cc(=O)oc2c1ccc1oc(C(=O)c3ccccc3C(F)(F)F)c(-c3ccccc3)c12 [Compound 35] | 1000 to 10000
Cc1cc(=O)oc2c1ccc1oc(C(=O)c3cccc(C(F)(F)F)c3)c(-c3ccccc3)c12 [Compound 36] | 101 to 999
Cc1cc(=O)oc2c1ccc1oc(C(=O)c3ccc(C(F)(F)F)cc3)c(-c3ccccc3)c12 [Compound 37] | 1000 to 10000
Cc1cc(=O)oc2c1ccc1oc(C(=O)c3ccc(OC(F)(F)F)cc3)c(-c3ccccc3)c12 [Compound 38] | 101 to 999
Cc1ccc(C(=O)c2oc3ccc4c(C)cc(=O)oc4c3c2-c2ccccc2)cc1 [Compound 41] | 101 to 999
Cc1cc(=O)oc2c1ccc1oc(C(=O)c3cccc(C#N)c3)c(-c3ccccc3)c12 [Compound 42] | 101 to 999
Cc1cc(=O)oc2c1ccc1oc(C(=O)c3ccc(F)cc3)c(-c3ccccc3)c12 [Compound 46] | 101 to 999
Cc1cc(=O)oc2c1ccc1oc(C(=O)c3ccc(Cl)cc3)c(-c3ccccc3)c12 [Compound 49] | 101 to 999
Cc1cc(=O)oc2c1ccc1oc(C(=O)c3ccc(Br)cc3)c(-c3ccccc3)c12 [Compound 50] | 101 to 999
Cc1cc(=O)oc2c1ccc1oc(C(=O)c3ccc([N+](=O)[O-])cc3)c(-c3ccccc3)c12 [Compound 51] | 101 to 999
Cc1cc(=O)oc2c1ccc1oc(C(=O)c3ccc(-c4ccccc4)cc3)c(-c3ccccc3)c12 [Compound 52] | 1000 to 10000
Cc1cc(=O)oc2c1ccc1oc(C(=O)c3ccc(Cl)c(Cl)c3)c(-c3ccccc3)c12 [Compound 58] | 101 to 999
Cc1cc(=O)oc2c1ccc1oc(C(=O)c3ccc(F)c(F)c3)c(-c3ccccc3)c12 [Compound 60] | 101 to 999
Cc1cc(=O)oc2c1ccc1oc(C(=O)c3cc(F)ccc3F)c(-c3ccccc3)c12 [Compound 61] | 101 to 999
Cc1ccc(C(=O)c2oc3ccc4c(C)cc(=O)oc4c3c2-c2ccccc2)c(C)c1 [Compound 62] | 101 to 999

Further lines, results first:

IC50 [nM] | SMILES
101 to 999 | Cc1cc(=O)oc2c1ccc1oc(C(=O)c3cccc([N+](=O)[O-])c3)c(-c3ccccc3)c12 [Compound 66]
101 to 999 | Cc1cc(=O)oc2c1ccc1oc(C(=O)c3cccc(OCCCCN4CCCCC4)c3)c(-c3ccccc3)c12 [Compound 85]
101 to 999 | Cc1cc(=O)oc2c1ccc1oc(C(=O)c3cccc(OCCCCN(C)C)c3)c(-c3ccccc3)c12 [Compound 88]
101 to 999 | Cc1cc(=O)oc2c1ccc1oc(C(=O)c3cccc(OCCN4CCN(C)CC4)c3)c(-c3ccccc3)c12 [Compound 89]
101 to 999 | Cc1cc(=O)oc2c1ccc1oc(C(=O)c3cccc(OCCCN4CCN(C)CC4)c3)c(-c3ccccc3)c12 [Compound 90]
1000 to 10000 | Cc1cc(=O)oc2c1ccc1oc(C(=O)c3cccc(OCCCCN4CCN(C)CC4)c3)c(-c3ccccc3)c12 [Compound 91]
101 to 999 | Cc1cc(=O)oc2c1ccc1oc(C(=O)c3ccco3)c(-c3ccccc3)c12 [Compound 92]
101 to 999 | Cc1ccc(C(=O)c2oc3ccc4c(C)cc(=O)oc4c3c2-c2ccccc2)o1 [Compound 94]
1000 to 10000 | Cc1cc(=O)oc2c1ccc1oc(C(=O)c3cc(Cl)sc3Cl)c(-c3ccccc3)c12 [Compound 97]
101 to 999 | Cc1cc(=O)oc2c1ccc1oc(C(=O)c3ccc(Br)s3)c(-c3ccccc3)c12 [Compound 98]
1000 to 10000 | Cc1cc(=O)oc2c1ccc1oc(C(=O)c3cccn3C)c(-c3ccccc3)c12 [Compound 102]
1000 to 10000 | CCOC(=O)c1cc(C(=O)c2oc3ccc4c(C)cc(=O)oc4c3c2-c2ccccc2)on1 [Compound 110]
1000 to 10000 | Cc1cc(=O)oc2c1ccc1oc(C(=O)c3cc(-c4ccc(Cl)cc4)no3)c(-c3ccccc3)c12 [Compound 112]
1000 to 10000 | CC(=O)c1oc2ccc3c(C)cc(=O)oc3c2c1-c1ccccc1 [Compound 119]
1000 to 10000 | Cc1cc(=O)oc2c1ccc1oc(C(=O)C3CCCCC3)c(-c3ccccc3)c12 [Compound 127]
101 to 999 | Cc1cc(=O)oc2c1ccc1oc(C(=O)c3ccccc3)c(-c3cccc(F)c3)c12 [Compound 133]
101 to 999 | Cc1cc(=O)oc2c1ccc1oc(C(=O)c3ccccc3)c(-c3ccccc3Cl)c12 [Compound 135]

IC50 [nM] | SMILES
101 to 999 | Cc1cc(=O)oc2c1ccc1oc(C(=O)c3ccccc3)c(-c3cccc(Cl)c3)c12 [Compound 136]
101 to 999 | Cc1cc(=O)oc2c1ccc1oc(C(=O)c3ccccc3)c(-c3ccc(Cl)cc3)c12 [Compound 137]
101 to 999 | Cc1cc(=O)oc2c1ccc1oc(C(=O)c3ccccc3)c(-c3ccccc3Br)c12 [Compound 138]
101 to 999 | Cc1cc(=O)oc2c1ccc1oc(C(=O)c3ccccc3)cc12 [Compound 153]
101 to 999 | Cc1cc(=O)oc2c1ccc1oc(C(=O)c3ccccc3)c(C)c12 [Compound 154]
101 to 999 | CCCc1c(C(=O)c2ccccc2)oc2ccc3c(C)cc(=O)oc3c12 [Compound 155]
1000 to 10000 | CCCCCc1c(C(=O)c2ccccc2)oc2ccc3c(C)cc(=O)oc3c12 [Compound 156]
101 to 999 | CCCCCCc1c(C(=O)c2ccccc2)oc2ccc3c(C)cc(=O)oc3c12 [Compound 157]
1000 to 10000 | CCCCCCCCCCc1c(C(=O)c2ccccc2)oc2ccc3c(C)cc(=O)oc3c12 [Compound 158]
101 to 999 | Cc1cc(=O)oc2c1ccc1oc(C(=O)c3ccccc3)c(-c3ccco3)c12 [Compound 159]
101 to 999 | Cc1cc(=O)oc2c1ccc1oc(C(=O)c3ccccc3)c(/C=C/c3ccccc3)c12 [Compound 161]
101 to 999 | Cc1cc(=O)oc2c1ccc1oc(C(=O)c3ccccc3)c(C3CCCCC3)c12 [Compound 165]
101 to 999 | Cc1cc(=O)oc2c1ccc1oc(Cc3ccccc3)c(-c3ccccc3)c12 [Compound 173]
1000 to 10000 | Cc1cc(=O)oc2c1ccc1oc(/C(=N/NC(N)=O)c3ccccc3)c(-c3ccccc3)c12 [Compound 174]
101 to 999 | Cc1cc(=O)oc2c1ccc1oc(/C(=N/OCc3ccccc3)c3ccccc3)c(-c3ccccc3)c12 [Compound 175]
1000 to 10000 | CO/N=C(\c1ccccc1)c1oc2ccc3c(C)cc(=O)oc3c2c1-c1ccccc1 [Compound 176]
101 to 999 | Cc1cc(=O)oc2c1ccc1oc(C(=O)c3cccc(OCCOCCOCCO)c3)c(-c3ccccc3)c12 [Compound 177]
